We go through 31 compounds from publication PMC9822940, “Antiplasmodial activity, structure–activity relationship and studies on the action of novel benzimidazole derivatives” (Scientific Reports, 2023).

The structures appear in SMILES notation. Where “and” joins values, the source holds several entries; their conditions need not be identical. Equal values may be shown once. Read-outs that look alike come from different tables or passages of the source.

In series [1] the test system is P. falciparum HB3 strain. The experiment in a line: Antiplasmodial activity against P. falciparum HB3 strain in culture. In kind it is cell-based, Plasmodium falciparum. To be noted: for SI (selectivity index): Vero CC50 versus HB3 IC50. Here is the method:
(§1) In vitro activity of BZ. All BZ derivatives were tested at 10 μM against the HB3 strain of Pf, and for those compounds with a percentage of growth inhibition (% GI) higher than 50%, the IC50 values were determined. In addition, their cytotoxicity on epithelial Vero cell cultures was evaluated to calculate their selectivity indexes (SI), Table 1. An index of 10 or above is expected for a lead compound.
(§2) The chloroquine-sensitive […] and chloroquine-resistance 7G8 strain […] of P. falciparum were used throughout. Infected erythrocytes were kept in culture using the protocol established by Haynes et al.[44], basically utilizing human O^+ erythrocytes kept in an RPMI medium supplemented with glutamine and 10% human serum incubated in an atmosphere of 90% N2, 5% O2 and 5% CO2.

A short description of series [2]: Cytotoxicity on epithelial Vero cell cultures. In kind it is cell-based. The conditions noted are these: African green monkey, epithelial Vero cells. Here is the method: as §1
Series [3] deals with Vero cells. Briefly: Cytotoxicity on epithelial Vero cell cultures. In kind it is cell-based. The conditions noted are these: Vero cells. Here is the method:
as §1

The subject of series [4] is 7G8 P. falciparum parasites. Briefly: Antiplasmodial activity against chloroquine-resistant 7G8 P. falciparum. In kind it is cell-based, Plasmodium falciparum. To be noted: for IC50: Plasmodium falciparum.
Source text: The mechanism used by Pf to prevent intoxication with free heme once hemoglobin is degraded is to form hemozoin crystals that capture heme. Mefloquine and other common antimalarials interfere with this pathway, resulting in the death of the parasite.
as §2

[5] abbreviates: Plasmodium falciparum, HB3 strain (chloroquine-sensitive), read-out: IC50.
The mark [6] stands for this setting: Plasmodium falciparum, at 10 μM, HB3 strain, read-out: GI (growth inhibition percentage).
[7] abbreviates: HB3 strain (chloroquine-sensitive), read-out: IC50.

Take `O=C(Nc1nc2cc(Cl)ccc2[nH]1)c1cnc2ccccc2c1` [BZ 21]: in series [1] (at 10 μM, HB3 strain), the “GI (growth inhibition percentage)” value is reported as 0.0%.

As for `Cc1cccc(C(=O)Nc2nc3cc(Cl)ccc3[nH]2)n1` [BZ 19], in series [1] (at 10 μM, HB3 strain), the “GI (growth inhibition percentage)” value was “inactive and 28.0%”.

As usually defined, the CC50 is the concentration that lowers cell viability or growth by half. One may read the IC50 as the point on the concentration scale where inhibition reaches its midpoint. What is called inhibition is the drop in the measured response relative to a control, in per cent. By melting point is commonly meant the temperature, or range, at which the solid turns liquid. `O=C(Nc1nc2cc(Cl)c(Cl)cc2[nH]1)c1ccccn1` [BZ 36, N-(5,6-Dichloro-1H-benzimidazol-2-yl)picolinamide] had a melting point of 281 °C. The CC50 in series [2] was 11.8 µM. In series [1] (setting [5]), the IC50 amounted to 2.4 µM. The inhibition at 10 µM in series [1] (setting [6]) is 81.9%. For the same compound, the “SI (selectivity index)” value in series [1] is on record as 5.0.

For `O=C(Nc1nc2cc(Cl)ccc2[nH]1)c1ccc2ccccc2n1` [BZ 20], the “GI (growth inhibition percentage)” value in series [1] (at 10 μM, HB3 strain) is recorded as 25.9%.

Compound `Cc1ccc2[nH]c(NC(=O)c3ccc4ccccc4n3)nc2c1` [BZ 9] came in with a CC50 in series [3] of 63 µM. In addition, the half-inhibitory concentration (IC50) in series [1] (setting [7]) stood at 14.1 µM. Further, the “GI (growth inhibition percentage)” value in series [1] (at 10 μM, HB3 strain) amounted to 73.1%.

Regarding `COc1ccc2[nH]c(NC(=O)c3ccc(-c4ccccc4)cn3)nc2c1` [BZ 28], it took 14.6 µM to reach half-maximal cytotoxicity in series [3] (CC50). Also, in series [1] (setting [7]), the IC50 was 4.4 µM. Moreover, the “GI (growth inhibition percentage)” value in series [1] (at 10 μM, HB3 strain) is reported as 72.7%.

`Cc1ccc2[nH]c(NC(=O)c3nccc4ccccc34)nc2c1` [BZ 11]: the “GI (growth inhibition percentage)” value in series [1] (at 10 μM, HB3 strain) stood at 0.0%.

`O=C(Nc1nc2cc(Cl)ccc2[nH]1)c1ccc(-c2ccccc2)cn1` [BZ 18, N-(5-Chloro-1H-benzimidazol-2-yl)-5-phenylpicolinamide]: the melting point was 214 °C. The compound further came in with a CC50 in series [2] of 0.6 µM. Moreover, the IC50 in series [1] (setting [5]) was determined as 2.3 µM. In addition, the inhibition at 10 µM in series [1] (setting [6]) was found to be 99.2%. In series [1], the “SI (selectivity index)” value is recorded as 0.3.

As to `O=C(Nc1nc2cc(Cl)ccc2[nH]1)c1ccnc2ccccc12` [BZ 22, N-(5-Chloro-1H-benzimidazol-2-yl)quinoline-4-carboxamide], the melting point was 262 °C. The CC50 in series [2] came to 16.1 µM. Further, the IC50 in series [1] (setting [5]) was found to be 2.3 µM. For the same compound, in series [1] (setting [6]), the inhibition at 10 µM was determined as 88.9%. Besides, the “SI (selectivity index)” value in series [1] came to 6.9.

With `Cc1ccc2[nH]c(NC(=O)c3cccnc3)nc2c1` [BZ 2], the “GI (growth inhibition percentage)” value in series [1] (at 10 μM, HB3 strain) is “inactive and 0.0%”.

Turning to `COc1ccc2nc(C(=O)Nc3nc4cc(Cl)ccc4[nH]3)ccc2c1` [BZ 24], the “GI (growth inhibition percentage)” value in series [1] (at 10 μM, HB3 strain) is on record as 22.3%.

Regarding `Cc1cc2nc(NC(=O)c3ccc(-c4ccccc4)cn3)[nH]c2cc1C` [BZ 35], in series [3], the CC50 was found to be 9.7 µM. The IC50 in series [1] (setting [7]) turned out to be 7.3 µM. In addition, the “GI (growth inhibition percentage)” value in series [1] (at 10 μM, HB3 strain) was found to be 64.7%.

In the case of `O=C(Nc1nc2cc([N+](=O)[O-])ccc2[nH]1)c1ccccn1` [BZ 29], it took 13.9 µM to reach half-maximal cytotoxicity in series [3] (CC50). Moreover, the IC50 in series [1] (setting [7]) came to 5.1 µM. Further, in series [1] (at 10 μM, HB3 strain), the “GI (growth inhibition percentage)” value is given as 96.0%.

With `O=C(Nc1nc2cc(Cl)ccc2[nH]1)c1nccc2ccccc12` [BZ 23], the “GI (growth inhibition percentage)” value in series [1] (at 10 μM, HB3 strain) is listed as 53.7%.

As for `Cc1ccc2[nH]c(NC(=O)c3ncccc3C)nc2c1` [BZ 4, 3-Methyl-N-(5-methyl-1H-benzimidazol-2-yl)picolinamide], the melting point is 173 °C. Half-maximal cytotoxicity in series [2] (CC50) was put at 6.8 µM. Further, the IC50 in series [1] (setting [5]) was found to be 2.5 µM. For the same compound, the inhibition at 10 µM in series [1] (setting [6]) is 92.4%. In series [1], the “SI (selectivity index)” value amounted to 2.8.

Compound `CCCCc1ccc(C(=O)Nc2nc3cc(C)c(C)cc3[nH]2)nc1` [BZ 34] registered a CC50 in series [3] of 3.2 µM. Further, the IC50 in series [1] (setting [7]) came out at 3.4 µM. For the same compound, in series [1] (at 10 μM, HB3 strain), the “GI (growth inhibition percentage)” value is 74.2%.

As to `CCCCc1ccc(C(=O)Nc2nc3cc(Cl)ccc3[nH]2)nc1` [BZ 17], the half-maximal cytotoxic concentration (CC50) in series [3] amounted to 3.4 µM. In series [1] (setting [7]), the IC50 is 3.5 µM. Besides, in series [1] (at 10 μM, HB3 strain), the “GI (growth inhibition percentage)” value amounted to 89.7%.

`CCCCc1ccc(C(=O)Nc2nc3cc(OC)ccc3[nH]2)nc1` [BZ 27, 5-Butyl-N-(5-methoxy-1H-benzimidazol-2-yl)picolinamide] returned a melting point of 129 °C. Also, the CC50 in series [2] is 8.5 µM. Besides, the IC50 in series [1] (setting [5]) worked out at 1.2 µM. For the same compound, in series [1] (setting [6]), the inhibition at 10 µM is 100%. For the same compound, the “SI (selectivity index)” value in series [1] is 7.4.

Take `CCCCCCCCC(N)C(=O)Nc1ccc2[nH]c(NC(=O)c3ccccn3)nc2c1` (centres unmarked) [BZ 32]: the half-maximal cytotoxic concentration (CC50) in series [3] came to 16.4 µM. Moreover, the IC50 in series [1] (setting [7]) is 6.8 µM.

With `CCN(CC)CCCC(C)Nc1ccnc2cc(Cl)ccc12` (centres unmarked) [Chloroquine, reference compound], the IC50 in series [1] (Plasmodium falciparum, HB3) turned out to be 0.028 µM; in series [4] (7G8, read-out: 7G8 Pf IC50), 0.23 µM. The inhibition at 10 µM in series [1] (Plasmodium falciparum, HB3, read-out: GI (growth inhibition percentage)) stood at 100%.

For the compound `Cc1ccc2[nH]c(NC(=O)c3ccc(C#N)cn3)nc2c1` [BZ 8], the “GI (growth inhibition percentage)” value in series [1] (at 10 μM, HB3 strain) is “inactive and 37.4%”.

Consider `O=C(Nc1nc2cc(Cl)ccc2[nH]1)c1ccccn1` [BZ 12, N-(5-chloro-1H-benzimidazol-2-yl)picolinamide], for which the CC50 in series [2] came out at 15.4 µM. The IC50 in series [1] (setting [5]) turned out to be 1.8 µM; in series [4] (7G8 strain (chloroquine-resistant), read-out: 7G8 Pf IC50), 3.6 µM. In addition, the inhibition at 10 µM in series [1] (setting [6]) is 91.4%. Besides, the “SI (selectivity index)” value is 8.7 in series [1] and 4.2 in series [4] (Vero CC50 versus 7G8 IC50).

In the case of `COc1ccnc(C(=O)Nc2nc3cc(Cl)ccc3[nH]2)c1` [BZ 15, N-(5-Chloro-1H-benzimidazol-2-yl)-4-methoxypicolinamide], the melting point was determined as 245 °C. Besides, in series [2], the CC50 was 2 µM. Also, the 50% inhibitory concentration (IC50) in series [1] (setting [5]) was found to be 1.5 µM. Also, in series [1] (setting [6]), the inhibition at 10 µM was found to be 89.8%. The “SI (selectivity index)” value in series [1] was found to be 1.4.

Turning to `Cc1ccc2[nH]c(NC(=O)c3ccc(-c4ccccc4)cn3)nc2c1` [BZ 7], the midpoint of cytotoxicity in series [3], the CC50, lay at 19.5 µM. In addition, the IC50 in series [1] (setting [7]) came out at 7.8 µM. Besides, the “GI (growth inhibition percentage)” value in series [1] (at 10 μM, HB3 strain) was 57.5%.

`CCCCCCCCC(NC(=O)OC(C)(C)C)C(=O)Nc1ccc2[nH]c(NC(=O)c3ccccn3)nc2c1` (centres unmarked) [BZ 31]: the half-maximal cytotoxic concentration (CC50) in series [3] was determined as 26.8 µM. For the same compound, the IC50 in series [1] (setting [7]) came out at 8.5 µM.

Take `Cc1ccc2[nH]c(NC(=O)c3ccncc3)nc2c1` [BZ 3]: in series [1] (at 10 μM, HB3 strain), the “GI (growth inhibition percentage)” value was “inactive and 0.0%”.

Take `CCCCc1ccc(C(=O)Nc2nc3cc(C)ccc3[nH]2)nc1` [BZ 6, 5-Butyl-N-(5-methyl-1H-benzimidazol-2-yl)picolinamide]: the melting point turned out to be 245 °C. Besides, it took 6.6 µM to reach half-maximal cytotoxicity in series [2] (CC50). Also, the IC50 in series [1] (setting [5]) was found to be 2.4 µM. In series [1] (setting [6]), the inhibition at 10 µM is 90.9%. Besides, in series [1], the “SI (selectivity index)” value is on record as 2.7.

Take `Cc1cccnc1C(=O)Nc1nc2cc(Cl)ccc2[nH]1` [BZ 13, N-(5-Chloro-1H-benzimidazol-2-yl)-3-methylpicolinamide]: the melting point worked out at 180 °C. The compound further gave a CC50 in series [2] of 8.6 µM. Also, the half-inhibitory concentration (IC50) in series [1] (setting [5]) was 2.8 µM. Also, the inhibition at 10 µM in series [1] (setting [6]) was found to be 87.3%. The “SI (selectivity index)” value in series [1] came to 3.0.

On to `O=C(Nc1nc2cc(Cl)ccc2[nH]1)c1ncccc1Cl` [BZ 14], for which the “GI (growth inhibition percentage)” value in series [1] (at 10 μM, HB3 strain) is reported as 11.9%.

Regarding `Cc1ccc2[nH]c(NC(=O)c3ccnc4ccccc34)nc2c1` [BZ 10], the “GI (growth inhibition percentage)” value in series [1] (at 10 μM, HB3 strain) was 60.5%.

For the compound `COc1ccc2[nH]c(NC(=O)c3ccccn3)nc2c1` [BZ 25], the “GI (growth inhibition percentage)” value in series [1] (at 10 μM, HB3 strain) is 50.9%.
